From ChEMBL document CHEMBL3045431, “Stability of DNA upon interaction with dimethyltin dichloride” (Med Chem Res, 2007)
Calls of active or inactive are those of the source. The rule behind the calls is not given here.

How the values were obtained:
[1] = Binding affinity to DNA assessed as dissociation constant at < 2 mM by isothermal spectrophotometric titration method
[2] = Binding affinity to DNA assessed as association constant at < 2 mM by isothermal spectrophotometric titration method
[3] = system: DNA; assay: Binding affinity to Bos taurus (calf) thymus DNA at 2 mM by isothermal spectrophotometric titration method; format: nucleic-acid assay
[4] = system: DNA; assay: Thermal stabilization of Bos taurus (calf) thymus DNA assessed as change in melting temperature at 13.6 mM by differential scanning calometric method; format: nucleic-acid assay
[5] = system: DNA; assay: Thermal stabilization of Bos taurus (calf) thymus DNA assessed as change in melting temperature at 2 mM by differential scanning calometric method; format: nucleic-acid assay
[6] = system: DNA; assay: Binding affinity to Bos taurus (calf) thymus DNA at 0.5 mM by isothermal spectrophotometric titration method; format: nucleic-acid assay
[7] = system: DNA; assay: Binding affinity to Bos taurus (calf) thymus DNA at 9 mM by isothermal spectrophotometric titration method; format: nucleic-acid assay
[8] = system: DNA; assay: Binding affinity to Bos taurus (calf) thymus DNA at 13.6 mM by isothermal spectrophotometric titration method; format: nucleic-acid assay
[9] = system: DNA; assay: Binding affinity to Bos taurus (calf) thymus DNA at 11 mM by isothermal spectrophotometric titration method; format: nucleic-acid assay

Kd [1] | Ka [2] | K [3] | Tm [4] | Activity [5] | K [6] | K [7] | K [8] | K [9] | Substance
281 µM | – | – | – | – | – | – | – | – | DICHLORODIMETHYLSTANNANE
– | 3.56 ×10³ /M | 3.53 ×10³ /M | 70.2 °C | Active | 3.59 ×10³ /M | 0.123 ×10³ /M | 0.143 ×10³ /M | 0.125 ×10³ /M | [sequence]
